Measurements published in patent publication US10597388B2, “Pyridazinone herbicides” (FMC CORPORATION, priority 2014, dated 2020).

What was measured:
Assay type in all cases: in vivo
[1] = system: ducksalad (Heteranthera limosa); assay: Test B flooded paddy test; settings: 250 g ai/ha, Flood; visual rating on scale of 0 to 100 where 0 is no effect and 100 is complete control; 13 to 15 d after treatment
How it was run: (§1)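 Plants at the 2-leaf stage were flooded to 3 cm above soil, and test compounds were applied directly into the paddy water, which was held at that depth throughout. After 13 to 15 d in a greenhouse, injury was rated visually against untreated controls on a 0–100 scale (0 no effect, 100 complete control).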

[2] = system: barnyardgrass (Echinochloa crus-galli); assay: Test B flooded paddy test; settings: 250 g ai/ha, Flood; visual rating on scale of 0 to 100 where 0 is no effect and 100 is complete control; 13 to 15 d after treatment
How it was run: as §1

[3] = system: sedge, umbrella (small-flower umbrella sedge, Cyperus difformis); assay: Test B flooded paddy test; settings: 250 g ai/ha, Flood; visual rating on scale of 0 to 100 where 0 is no effect and 100 is complete control; 13 to 15 d after treatment
How it was run: as §1

rice (Oryza sativa) = assay: Test B flooded paddy test; settings: 250 g ai/ha, Flood; visual rating on scale of 0 to 100 where 0 is no effect and 100 is complete control; 13 to 15 d after treatment
How it was run: as §1

[4] = system: galium (catchweed bedstraw, Galium aparine); assay: Test A greenhouse herbicide test, postemergence
How it was run: (§2)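 Greenhouse postemergence test: formulated chemicals sprayed on one- to two-leaf plants (2 to 10 cm), grown in loam soil blended with sand. Injury assessed visually about 10 d later against untreated controls, scored 0 (no effect) to 100 (complete control).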

[5] = system: blackgrass (Alopecurus myosuroides); assay: Test A greenhouse herbicide test, postemergence
How it was run: as §2

[6] = system: wheat (Triticum aestivum); assay: Test A greenhouse herbicide test, pre- and postemergence; settings: Postemergence
How it was run: (§3)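 Seeds sown in loam–sand blend got a preemergence directed soil spray of compound in non-phytotoxic solvent with surfactant. Postemergence treatment was given at 2–10 cm, one- to two-leaf stage. After ~10 d in greenhouse, injury was rated visually vs untreated controls, 0 (no effect) to 100 (complete control).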

[7] = system: ryegrass, Italian (Italian ryegrass, Lolium multiflorum); assay: as above
How it was run: as §3

[8] = system: ragweed (common ragweed, Ambrosia elatior); assay: as above
How it was run: as §3

[9] = system: barnyardgrass (Echinochloa crus-galli); assay: as above
How it was run: as §3

[10] = system: foxtail, giant (giant foxtail, Setaria faberii); assay: as above
How it was run: as §3

corn (Zea mays) = assay: as above; settings: Postemergence
How it was run: as §3

kochia (Kochia scoparia) = assay: as above
How it was run: as §3

[11] = system: pigweed (Amaranthus retroflexus); assay: as above
How it was run: as §3

[12] = 125 g ai/ha, 0 to 100 scale, 0 no effect, 100 complete control
[13] = 500 g ai/ha, visual rating after approx. 10 d, 0 to 100 scale (0 no effect, 100 complete control)
[14] = Postemergence, 125 g ai/ha, 0 to 100 scale, 0 no effect, 100 complete control
[15] = Postemergence, 500 g ai/ha, visual rating after approx. 10 d, 0 to 100 scale (0 no effect, 100 complete control)
[16] = Preemergence, 125 g ai/ha, visual injury rating, 0 to 100 scale (0 no effect, 100 complete control), approx. 10 d
[17] = Preemergence, 500 g ai/ha, 0 to 100 scale where 0 is no effect and 100 is complete control
[18] = 125 g ai/ha, 0 to 100 scale where 0 is no effect and 100 is complete control
[19] = Postemergence, 125 g ai/ha, 0 to 100 scale where 0 is no effect and 100 is complete control
[20] = Preemergence, 125 g ai/ha, 0 to 100 scale where 0 is no effect and 100 is complete control
[21] = 500 g ai/ha, 0 to 100 scale, 0 is no effect, 100 is complete control
[22] = Postemergence, 500 g ai/ha, 0 to 100 scale, 0 is no effect, 100 is complete control

SMILES: Cc1cc(C)c2sc(C)c(-c3c(OC(=O)N4CCOCC4)c(C)nn(C)c3=O)c2c1 [Compound 174]
- Plant response rating, Ducksalad [1]: 0
- Plant response rating, Barnyardgrass [2]: 0
- Plant response rating, Sedge, Umbrella [3]: 0
- Plant response rating, Rice (rice (Oryza sativa)): 0
- Plant response rating, Galium [4, 12]: 30
- Plant response rating, Galium [4, 13]: 80
- Plant response rating, Blackgrass [5, 12]: 0
- Plant response rating, Blackgrass [5, 13]: 0
- Plant response rating, Wheat [6, 12]: 0
- Plant response rating, Wheat [6, 13]: 0
- Plant response rating, Ryegrass, Italian [7, 14]: 10
- Plant response rating, Ryegrass, Italian [7, 15]: 40
- Plant response rating, Ryegrass, Italian [7, 16]: 0
- Plant response rating, Ryegrass, Italian [7, 17]: 0
- Plant response rating, Ragweed [8, 14]: 20
- Plant response rating, Ragweed [8, 15]: 20
- Plant response rating, Ragweed [8, 16]: 0
- Plant response rating, Ragweed [8, 17]: 0
- Plant response rating, Barnyardgrass [9, 14]: 0
- Plant response rating, Barnyardgrass [9, 15]: 10
- Plant response rating, Barnyardgrass [9, 16]: 0
- Plant response rating, Barnyardgrass [9, 17]: 0
- Plant response rating, Foxtail, Giant [10, 14]: 0
- Plant response rating, Foxtail, Giant [10, 15]: 10
- Plant response rating, Foxtail, Giant [10, 16]: 0
- Plant response rating, Foxtail, Giant [10, 17]: 10
- Plant response rating, Corn (corn (Zea mays); [12]): 0
- Plant response rating, Corn (corn (Zea mays); [13]): 0
- Plant response rating, Kochia (kochia (Kochia scoparia); [14]): 0
- Plant response rating, Kochia (kochia (Kochia scoparia); [15]): 0
- Plant response rating, Kochia (kochia (Kochia scoparia); [16]): 0
- Plant response rating, Kochia (kochia (Kochia scoparia); [17]): 0
- Plant response rating, Pigweed [11, 14]: 40
- Plant response rating, Pigweed [11, 15]: 60
- Plant response rating, Pigweed [11, 16]: 0
- Plant response rating, Pigweed [11, 17]: 20

SMILES: COC(=O)Oc1c(OC)nn(C)c(=O)c1-c1c(C)sc2ccc(Cl)cc12 [Compound 112]
- Plant response rating, Ducksalad [1]: 0
- Plant response rating, Barnyardgrass [2]: 0
- Plant response rating, Sedge, Umbrella [3]: 0
- Plant response rating, Rice (rice (Oryza sativa)): 0
- Plant response rating, Galium [4, 18]: 70
- Plant response rating, Galium [4, 13]: 90
- Plant response rating, Blackgrass [5, 18]: 40
- Plant response rating, Blackgrass [5, 13]: 80
- Plant response rating, Wheat [6, 18]: 20
- Plant response rating, Wheat [6, 13]: 30
- Plant response rating, Ryegrass, Italian [7, 19]: 80
- Plant response rating, Ryegrass, Italian [7, 15]: 100
- Ryegrass, Italian plant response rating [7, 20]: 90
- Plant response rating, Ryegrass, Italian [7, 17]: 100
- Plant response rating, Ragweed [8, 19]: 60
- Plant response rating, Ragweed [8, 15]: 80
- Ragweed plant response rating [8, 20]: 40
- Plant response rating, Ragweed [8, 17]: 80
- Plant response rating, Barnyardgrass [9, 19]: 20
- Plant response rating, Barnyardgrass [9, 15]: 20
- Barnyardgrass plant response rating [9, 20]: 10
- Plant response rating, Barnyardgrass [9, 17]: 20
- Plant response rating, Foxtail, Giant [10, 19]: 20
- Plant response rating, Foxtail, Giant [10, 15]: 50
- Foxtail, Giant plant response rating [10, 20]: 50
- Plant response rating, Foxtail, Giant [10, 17]: 60
- Plant response rating, Corn (corn (Zea mays); [18]): 0
- Plant response rating, Corn (corn (Zea mays); [13]): 30
- Plant response rating, Kochia (kochia (Kochia scoparia); [19]): 20
- Plant response rating, Kochia (kochia (Kochia scoparia); [15]): 30
- Kochia plant response rating (kochia (Kochia scoparia); [20]): 20
- Plant response rating, Kochia (kochia (Kochia scoparia); [17]): 80
- Plant response rating, Pigweed [11, 19]: 20
- Plant response rating, Pigweed [11, 15]: 30
- Pigweed plant response rating [11, 20]: 90
- Plant response rating, Pigweed [11, 17]: 100

SMILES: CCOc1ccc2cccc(-c3c(O)c(C)nn(C)c3=O)c2c1 [Compound 92]
- Plant response rating, Ducksalad [1]: 0
- Plant response rating, Barnyardgrass [2]: 0
- Plant response rating, Sedge, Umbrella [3]: 40
- Plant response rating, Rice (rice (Oryza sativa)): 0
- Plant response rating, Galium [4, 18]: 10
- Galium plant response rating [4, 21]: 30
- Plant response rating, Blackgrass [5, 18]: 0
- Blackgrass plant response rating [5, 21]: 20
- Plant response rating, Wheat [6, 18]: 0
- Wheat plant response rating [6, 21]: 0
- Plant response rating, Ryegrass, Italian [7, 19]: 0
- Ryegrass, Italian plant response rating [7, 22]: 0
- Ryegrass, Italian plant response rating [7, 20]: 0
- Plant response rating, Ryegrass, Italian [7, 17]: 0
- Plant response rating, Ragweed [8, 19]: 0
- Ragweed plant response rating [8, 22]: 0
- Ragweed plant response rating [8, 20]: 0
- Plant response rating, Ragweed [8, 17]: 0
- Plant response rating, Barnyardgrass [9, 19]: 0
- Barnyardgrass plant response rating [9, 22]: 0
- Barnyardgrass plant response rating [9, 20]: 0
- Plant response rating, Barnyardgrass [9, 17]: 0
- Plant response rating, Foxtail, Giant [10, 19]: 0
- Foxtail, Giant plant response rating [10, 22]: 0
- Foxtail, Giant plant response rating [10, 20]: 0
- Plant response rating, Foxtail, Giant [10, 17]: 0
- Plant response rating, Corn (corn (Zea mays); [18]): 0
- Corn plant response rating (corn (Zea mays); [21]): 0
- Plant response rating, Kochia (kochia (Kochia scoparia); [19]): 60
- Kochia plant response rating (kochia (Kochia scoparia); [22]): 70
- Kochia plant response rating (kochia (Kochia scoparia); [20]): 0
- Plant response rating, Kochia (kochia (Kochia scoparia); [17]): 20
- Plant response rating, Pigweed [11, 19]: 20
- Pigweed plant response rating [11, 22]: 30
- Pigweed plant response rating [11, 20]: 0
- Plant response rating, Pigweed [11, 17]: 0
